{
  "source": "patent US10208007B2",
  "about": "“Use of strigolactones and strigolactone analogs for treating proliferative conditions” (The State of Israel, Ministry of Agriculture & Rural …, priority 2011, dated 2019)",
  "key": {"pT308 AKT": {"tested_on": "pT308 AKT", "assay": "Immunoblot of survival signaling", "format": "cell-based, human", "conditions": "MDA-MB-231 cells, 10 ppm", "protocol": "Protein concentration was determined using the BCA Protein Assay (Pierce), and 20-50 μg of lysate were separated in a 4-12% SDS-PAGE gel. After transfer, membranes were blocked for 15-30 min at room temperature in 5% BSA (Sigma) in Tris-buffered saline containing 0.1% Tween-20. Primary antibody was incubated for either 1.5 hours at room temperature or overnight at 4° C. Secondary antibody was incubated for 30-45 min at room temperature, and proteins were visualized with West Pico Stable (Pierce). All antibodies were used at 1:1000 dilution unless otherwise stated. pT308AKT, AKT, pT180/Y182, pT183/Y185 P38MAPK, pP38MAPK, pT202/Y204 pERK1/2, ERK1, pT183/Y185, pJNK1/2, JNK1, pT71ATF2, pT581MSK1, pT14 Cdc2, Cdc2, pT68Chk2 (cell signaling), pT334MAPKAPK, pS82HSP27 (Cell Signaling Technology, Danvers, Mass.), α-tubulin (Biomarkers, 1:50,000), Cyclin B1 (Santa Cruz Biotechnologies) and horseradish peroxidase-conjugated anti-rabbit IgG and anti-mouse IgG (1:5,000, Pierce).\nThe PI3K/AKT pathway regulates a wide range of cellular functions including survival and proliferation. […] PDK1 phosphorylates AKT on T308, which is itself activated by phosphorylation on S241. Levels of pS241 PDK1 were reduced upon strigolactone treatment and correlated closely with reduced AKT phosphorylation observed in strigolactone treated cells (FIG. 14)."}, "Cyclin B1": {"tested_on": "Cyclin B1", "assay": "Western blot analysis of cyclin B1 levels", "format": "cell-based, human", "conditions": "DU145, 24 hour treatment, then ALLN 4 or 8 hours"}, "MDA-MB-436 [1]": {"tested_on": "MDA-MB-436", "assay": "XTT viability assay", "format": "cell-based, human", "conditions": "MDA-MB-436, 3 days", "protocol": "(§1) Viability was assayed after 3 days (XTT, ATCC). IC50 concentrations are indicated (Table 3 above)."}, "A549": {"tested_on": "A549", "assay": "XTT viability assay", "format": "cell-based, human", "conditions": "A549, 3 days", "protocol": "as §1"}, "HCT116 cells": {"tested_on": "HCT116 cells", "assay": "XTT viability after timed exposure and strigolactone removal", "conditions": "Homo sapiens", "procedure": "(§3) At each time point the strigolactone analog was removed and the media was replaced with fresh growth media without strigolactone analog. […] In addition, viability of MDA-MB-231 cells was assessed after 24 hours by using an XTT assay (FIG. 9B). […] After 2, 4 or 24 hours the media was removed, cells were washed and media was replaced with growth media minus strigolactone analog."}, "U20S cells": {"tested_on": "U20S cells", "assay": "XTT viability after timed exposure and strigolactone removal", "conditions": "Homo sapiens", "procedure": "as §3"}, "MDA-MB-436 [2]": {"tested_on": "MDA-MB-436", "assay": "Cell cycle analysis (propidium iodide, flow cytometry)", "format": "cell-based, human", "conditions": "10 ppm, 48 hours", "protocol": "(§2) Adherent cells were trypsinyzed, washed twice with PBS and filtered through a […] cell sieve. DNA content was assessed by flow cytometry. Cells were seeded at densities of 1.5×10^5 cells (MDA-MB-231, MDA-MB-436), or 4×10^5 cells (MCF-7 and MCF10A), or 2×10^5 cells (SW480, HT-29), or 5×10^5 cells (HCT116), per well in DMEM with 10% FBS in 6-well plate culture dishes. […] After 48 hours, cells were washed twice with PBS (pH 7.4), centrifuged at 360 g for 10 minutes at 4° C., and fixed in chilled ethanol (70%; v/v in PBS) with gentle vortex mixing. To determine their DNA contents, the cells were stained with 40 μg/ml propidium iodide (hereinafter PI) and analyzed using a FACSCalibur flow cytometer and CellQuest analysis software (Becton Dickinson, San Jose, Calif.). Where phosphoHistone-H3 staining was carried out, cells were incubated with polyclonal antibody against phosphoHistone H3 and then with secondary Goat anti-rabbit IgG-conjugated to FITC prior to PI staining."}, "MCF-7": {"tested_on": "MCF-7", "assay": "Cell cycle analysis (propidium iodide, flow cytometry)", "format": "cell-based, human", "conditions": "10 ppm, 48 hours", "protocol": "as §2"}, "[3]": {"tested_on": "breast cancer cells both luminal (estrogen receptor positive) and basal (estrogen receptor negative)", "assay": "IC50 by number of cells per well versus control cultures", "format": "cell-based", "protocol": "The IC50 values are defined herein as that concentration of active ingredient at which the number of cells per well at the end of the incubation period is only 50% of the number of cells in the control cultures. The IC50 values thus determined are, for the compounds of formula II, approximately from 0.1 to 50 μmoliliter."}, "Saccharomyces cerevisiae": {"tested_on": "Saccharomyces cerevisiae", "assay": "Yeast cell culture growth (OD)", "format": "cell-based", "protocol": "Saccharomyces cerevisiae and Candida oleophila yeast cells were grown overnight in a reach nutrient media at 28° C., at 150 rpm. Following, they were diluted to 0.4 OD in low nutrient media (Lily) and were divided into 96 wells. The cells were treated with GR-24 or ST-362, at the indicated concentrations. Cell culture growth was monitored every hour for 17 hours, at 28° C., with gentle shake before each OD read. OD was determined using fluorometer. Statistical differences between curves were analyzed using compareGrowthCurves function from the Statistical Modeling package, statmod (http://bioinf.wehi.edu.au/software/compareCurves/), significance was determined once P≤0.05."}, "[4]": {"tested_on": "MDA-MB-231 breast cancer cells", "assay": "Xenograft tumor model", "format": "in vivo", "conditions": "SCID mice, 10 mg/kg iv twice a week, 4 treatments; for Mean tumor volume: control 24.2±5.57; for Tumor growth: p<0.0015", "protocol": "To establish subcutaneous tumors, actively growing MDA-MB-231 breast cancer cells were harvested and 1.5×10^6 cells in 100 μl PBS were injected into the mammary fat pads of mice (n=15). The lesions were allowed to grow until their average sizes were approximately 4.5 mm×4.5 mm (about 3 weeks). The mice were then randomized into 3 groups for various treatments including vehicle control, and two strigolactone analogs: ST-362 and ST-357. Treatment started at day 1, 10 ppm (10 mg/Kg) twice a week for a total of 4 treatments. ST-362 and ST-357 were administered intravenously (iv). Body weight and tumor measurements were recorded twice weekly. Tumor cross-sectional area was calculated by multiplying the length×width and tumor volume was calculated by cubing the mean value of length and width. Results are summarized and plotted.\nData are expressed as mean±SD. Statistical significance was assessed by one-way ANOVA and Games-Howell Post Hoc test. A value of P<0.05 was considered significant and represents significance compared with untreated controls, unless indicated otherwise. Data was analyzed by Graphpad PRISMS and SPSS."}, "MDA-MB-231 cells": {"tested_on": "MDA-MB-231 cells", "assay": "Hoechst 33342 staining", "format": "cell-based, human", "conditions": "48 hours", "protocol": "MDA-MB-231 cells were seeded out into 96 well plates in triplicate at 3000 cell per well. […] After 48 hours, the medium was aspirated off and 100 μl of Hoechst dye (2 μg/ml), diluted with the medium, was added to the cells and incubated for 15 minutes. Stained cells were observed under a fluorescence microscope (Zeiss 5 Instruments, Thornwood, N.Y.)."}},
  "note": "Where “and” joins values, the source holds several entries; their conditions need not be identical. Equal entries are not always repeated.",
  "data": [
    {"smiles": "CC1=CC(O/C=C2\\Cc3c(n(C)c4ccccc34)C2=O)OC1=O", "note": "(racemic) [EG-5, (±) (2E)-4-methyl-2-(4-methyl-5-oxo-2,5-dihydrofuran-2-yloxymethylene)-1,4-dihydro-2H-cyclopenta[b]indol-3-one]", "values": [
      {"measurement": "pT308 AKT levels / inhibition of AKT phosphorylation", "setting": "pT308 AKT", "result": "slight delay in the inhibition of AKT phosphorylation, occurring between 8 and 24 hours"}
    ]},
    {"smiles": "CC1=CC(O/C=C2\\Cc3c(n(C)c4cc(-c5cccs5)ccc34)C2=O)OC1=O", "note": "(racemic) [MEB-55, (±) 2E-4-methyl-2-(4-methyl-5-oxo-2,5-dihydrofuran-2-yloxymethylene)-6-thiophen-2-yl-1,4-dihydro-2H-cyclopenta[b]indol-3-one]", "values": [
      {"measurement": "Partial rescue of Cyclin B1 levels by ALLN", "setting": "Cyclin B1", "result": 1.3, "unit": "fold"},
      {"measurement": "pT308 AKT levels / inhibition of AKT phosphorylation", "setting": "pT308 AKT", "result": "decreased dramatically between 4 and 8 hours"},
      {"measurement": "IC50 at 72 h", "setting": "MDA-MB-436 [1]", "result": 8.3, "unit": "ppm"},
      {"measurement": "IC50 at 72 h", "setting": "A549", "result": 6.9, "unit": "ppm"},
      {"measurement": "viability at 10 ppm", "setting": "HCT116 cells; HCT-116, 1 h", "result": 75, "unit": "%"},
      {"measurement": "viability at 20 ppm", "setting": "HCT116 cells; HCT-116, 1 h", "result": 68, "unit": "%"},
      {"measurement": "viability at 10 ppm", "setting": "HCT116 cells; HCT-116, 4 h", "result": 18, "unit": "%"},
      {"measurement": "viability at 20 ppm", "setting": "HCT116 cells; HCT-116, 4 h", "result": 0, "unit": "%"},
      {"measurement": "viability at 10 ppm", "setting": "U20S cells; 1 h", "result": 52, "unit": "%"},
      {"measurement": "viability at 20 ppm", "setting": "U20S cells; 1 h", "result": 40, "unit": "%"},
      {"measurement": "viability at 10 ppm", "setting": "U20S cells; 4 h", "result": 0, "unit": "%"},
      {"measurement": "viability at 20 ppm", "setting": "U20S cells; 4 h", "result": 0, "unit": "%"}
    ]},
    {"smiles": "CC1=C[C@H](O/C=C2/C(=O)O[C@@H]3c4ccccc4C[C@H]23)OC1=O", "note": "(relative stereo) [GR-24, (3aR*,8bS*,E)-3-(((R*)-4-methyl-5-oxo-2,5-dihydrofuran-2-yloxy)methylene)-3,3a,4,8b-tetrahydro-2H-indeno[1,2-b]furan-2-one]", "values": [
      {"measurement": "Increase in the sub-G1/apoptotic fraction compared to vehicle", "setting": "MDA-MB-436 [2]", "result": 3.4, "unit": "fold"},
      {"measurement": "Change in the subG1 fraction", "setting": "MCF-7", "result": "no change"},
      {"measurement": "IC50 value", "setting": "[3]", "result": "in the range of micromolar concentration"},
      {"measurement": "Cell culture growth", "setting": "Saccharomyces cerevisiae; apparent 8 hours after application, 17 hours monitoring", "result": "significant reduction in cell culture growth"}
    ]},
    {"smiles": "CC1=CC(O/C=C2/C(=O)c3c(c4cc(-c5cccs5)ccc4n3C)C2C)OC1=O", "note": "(stereo not shown) [ST-357, (2E)-1,4-dimethyl-2-((4-methyl-5-oxo-2,5-dihydrofuran-2-yloxy)methylene)-7-(thiophen-2-yl)-1,2-dihydrocyclopenta[b]indol-3(4H)-one]", "values": [
      {"measurement": "Mean tumor volume", "setting": "[4]", "result": "15.9±2.61", "unit": "mm^3"},
      {"measurement": "Tumor growth", "setting": "[4]", "result": "effective in inhibiting tumor growth"},
      {"measurement": "viability at 10 ppm", "setting": "HCT116 cells; HCT-116, 1 h", "result": 75, "unit": "%"},
      {"measurement": "viability at 20 ppm", "setting": "HCT116 cells; HCT-116, 1 h", "result": 63, "unit": "%"},
      {"measurement": "viability at 20 ppm", "setting": "HCT116 cells; HCT-116, 4 h", "result": 50, "unit": "%"},
      {"measurement": "viability at 20 ppm", "setting": "HCT116 cells; HCT-116, 8 h", "result": 10, "unit": "%"},
      {"measurement": "viability at 10 ppm", "setting": "U20S cells; 1 h", "result": 80, "unit": "%"},
      {"measurement": "viability at 20 ppm", "setting": "U20S cells; 1 h", "result": 77, "unit": "%"},
      {"measurement": "viability at 10 ppm", "setting": "U20S cells; 4 h", "result": 62, "unit": "%"},
      {"measurement": "viability at 20 ppm", "setting": "U20S cells; 4 h", "result": 10, "unit": "%"}
    ]},
    {"smiles": "CC1=CC(O/C=C2/C(=O)c3c(c4cc(-c5scc6c5OCCO6)ccc4n3C)C2C)OC1=O", "note": "(stereo not shown) [ST-362, (2E)-2-[(2,5-dihydro-4-methyl-5-oxofuran-2-yloxy)methylene]-1,2-dihydro-7-(2,3-dihydrothieno[3,4-b][1,4]dioxin-7-yl)-1,4-dimethyl-cyclopenta[b]indole-3-(4H)-one]", "values": [
      {"measurement": "Concentrations resulting in increased nuclear condensation and fragmentation (indicative of apoptosis)", "setting": "MDA-MB-231 cells", "result": "10-15 ppm and 5-10 ppm"},
      {"measurement": "Mean tumor volume", "setting": "[4]", "result": "17.7±4.28", "unit": "mm^3"},
      {"measurement": "Tumor growth", "setting": "[4]", "result": "effective in inhibiting tumor growth"},
      {"measurement": "Partial rescue of Cyclin B1 levels by ALLN", "setting": "Cyclin B1", "result": 2, "unit": "fold"},
      {"measurement": "IC50 at 72 h", "setting": "MDA-MB-436 [1]", "result": 5.9, "unit": "ppm"},
      {"measurement": "IC50 at 72 h", "setting": "A549", "result": 6.7, "unit": "ppm"},
      {"measurement": "Concentrations giving a significant reduction in cell culture growth", "setting": "Saccharomyces cerevisiae; apparent from the time of application", "result": "≥ 0.1", "unit": "µM"}
    ]}
  ]
}
